Reference: patent US20210017295A1, “BISPECIFIC BINDING AGENTS AND USES THEREOF” (MEMORIAL SLOAN KETTERING CANCER CENTER, priority 2018, published 2021)
Several values for one entry are separate records, joined by “and”; a condition that tells them apart may be missing. Equal values may be shown once. Read-outs that look alike come from different tables or passages of the source.

Test system: s.c. HER2(+) BT-474 tumors
Assay type: in vivo, mouse
Settings: 24 h p.i.
[1] = PRIT + CA 62.5 μg, 55.5 MBq (~300 pmol), mean ± SEM
[2] = PRIT + CA 62.5 μg, ~5.6 MBq (~30 pmol), mean ± SEM
[3] = PRIT, CA 0% (saline), mean ± SD
[4] = PRIT, CA 7.5% w/w 18.75 μg, mean ± SD
[5] = PRIT, CA 14% w/w 37.5 μg, mean ± SD
[6] = PRIT, CA 28% w/w 70 μg, mean ± SD

Structure (SMILES): Nc1ccc(CC2CN(CC(=O)[O-])CCN(CC(=O)[O-])CCN(CC(=O)[O-])CCN2CC(=O)[O-])cc1.[177Lu+3] (centres unmarked) [^177Lu-DOTA-Bn]
- ^177Lu activity in Blood [1]: 0.29±0.05 % IA/g
- ^177Lu activity in Bone [1]: 0.04 ± 0.01 % IA/g
- ^177Lu activity in Heart [1]: 0.11 ± 0.02 % IA/g
- ^177Lu activity in Kidneys [1]: 0.56±0.08 % IA/g
- ^177Lu activity in Large Int. [1]: 0.20 ± 0.11 % IA/g
- ^177Lu activity in Liver [1]: 0.33 ± 0.04 % IA/g
- ^177Lu activity in Lungs [1]: 0.20 ± 0.02 % IA/g
- ^177Lu activity in Muscle [1]: 0.04 ± 0.01 % IA/g
- ^177Lu activity in Small Int. [1]: 0.05 ± 0.01 % IA/g
- ^177Lu activity in Spleen [1]: 0.22 ± 0.07 % IA/g
- ^177Lu activity in Stomach [1]: 0.04 ± 0.01 % IA/g
- ^177Lu activity in Tumor [1]: 5.53±0.27 % IA/g
- ^177Lu activity in Blood [2]: 0.28±0.09 % IA/g
- ^177Lu activity in Bone [2]: 0.04 ± 0.01 % IA/g
- ^177Lu activity in Heart [2]: 0.07 ± 0.02 % IA/g
- ^177Lu activity in Kidneys [2]: 0.73±0.05 % IA/g
- ^177Lu activity in Large Int. [2]: 0.18 ± 0.01 % IA/g
- ^177Lu activity in Liver [2]: 0.27 ± 0.07 % IA/g
- ^177Lu activity in Lungs [2]: 0.20 ± 0.05 % IA/g
- ^177Lu activity in Muscle [2]: 0.06 ± 0.01 % IA/g
- ^177Lu activity in Small Int. [2]: 0.05 ± 0.01 % IA/g
- ^177Lu activity in Spleen [2]: 0.60 ± 0.21 % IA/g
- ^177Lu activity in Stomach [2]: 0.06 ± 0.01 % IA/g
- ^177Lu activity in Tumor [2]: 7.58±0.78 % IA/g
- ^177Lu activity in Blood (PRIT + no CA, mean ± SEM): 4.95 ± 0.58 % IA/g
- ^177Lu activity in Bone (PRIT + no CA, mean ± SEM): 0.39 ± 0.08 % IA/g
- ^177Lu activity in Heart (PRIT + no CA, mean ± SEM): 1.14 ± 0.14 % IA/g
- ^177Lu activity in Kidneys (PRIT + no CA, mean ± SEM): 2.31 ± 0.26 % IA/g
- ^177Lu activity in Large Int. (PRIT + no CA, mean ± SEM): 0.58 ± 0.06 % IA/g
- ^177Lu activity in Liver (PRIT + no CA, mean ± SEM): 1.85 ± 0.15 % IA/g
- ^177Lu activity in Lungs (PRIT + no CA, mean ± SEM): 2.11 ± 0.23 % IA/g
- ^177Lu activity in Muscle (PRIT + no CA, mean ± SEM): 0.38 ± 0.04 % IA/g
- ^177Lu activity in Small Int. (PRIT + no CA, mean ± SEM): 0.58 ± 0.06 % IA/g
- ^177Lu activity in Spleen (PRIT + no CA, mean ± SEM): 1.00 ± 0.11 % IA/g
- ^177Lu activity in Stomach (PRIT + no CA, mean ± SEM): 0.34 ± 0.04 % IA/g
- ^177Lu activity in Tumor (PRIT + no CA, mean ± SEM): 19.94±1.7 % IA/g and 19.94 ± 1.77 % IA/g
- Tumor-to-tissue ratio, Blood [3]: 4.0±1.2
- Tumor-to-tissue ratio, Bone [3]: 50.8 ± 22.7
- Tumor-to-tissue ratio, Heart [3]: 17.5 ± 5.4
- Tumor-to-tissue ratio, Kidneys [3]: 8.6 ± 2.5
- Tumor-to-tissue ratio, Large Int. [3]: 34.4 ± 9.3
- Tumor-to-tissue ratio, Liver [3]: 10.8 ± 2.6
- Tumor-to-tissue ratio, Lungs [3]: 9.5 ± 2.6
- Tumor-to-tissue ratio, Muscle [3]: 52.1 ± 15.2
- Tumor-to-tissue ratio, Small Int. [3]: 34.5 ± 9.3
- Tumor-to-tissue ratio, Spleen [3]: 19.9 ± 5.5
- Tumor-to-tissue ratio, Stomach [3]: 59.1 ± 18.8
- ^177Lu activity in Blood [3]: 4.95±1.17 % IA/g
- ^177Lu activity in Bone [3]: 0.39 ± 0.16 % IA/g
- ^177Lu activity in Heart [3]: 1.14 ± 0.29 % IA/g
- ^177Lu activity in Kidneys [3]: 2.31 ± 0.52 % IA/g
- ^177Lu activity in Large Int. [3]: 0.58 ± 0.12 % IA/g
- ^177Lu activity in Liver [3]: 1.85 ± 0.30 % IA/g
- ^177Lu activity in Lungs [3]: 2.11 ± 0.45 % IA/g
- ^177Lu activity in Muscle [3]: 0.38 ± 0.09 % IA/g
- ^177Lu activity in Small Int. [3]: 0.58 ± 0.12 % IA/g
- ^177Lu activity in Spleen [3]: 1.00 ± 0.21 % IA/g
- ^177Lu activity in Stomach [3]: 0.34 ± 0.09 % IA/g
- ^177Lu activity in Tumor [3]: 19.94±3.54 % IA/g
- Tumor-to-tissue ratio, Blood [4]: 7.1 ± 4.1
- Tumor-to-tissue ratio, Bone [4]: 80.6 ± 61.9
- Tumor-to-tissue ratio, Heart [4]: 16.0 ± 9.6
- Tumor-to-tissue ratio, Kidneys [4]: 9.7 ± 6.0
- Tumor-to-tissue ratio, Large Int. [4]: 29.9 ± 10.7
- Tumor-to-tissue ratio, Liver [4]: 15.0 ± 7.8
- Tumor-to-tissue ratio, Lungs [4]: 15.8 ± 7.9
- Tumor-to-tissue ratio, Muscle [4]: 67.5 ± 20.1
- Tumor-to-tissue ratio, Small Int. [4]: 33.7 ± 19.2
- Tumor-to-tissue ratio, Spleen [4]: 12.6 ± 3.3
- Tumor-to-tissue ratio, Stomach [4]: 59.2 ± 17.0
- ^177Lu activity in Blood [4]: 1.03 ± 0.58 % IA/g
- ^177Lu activity in Bone [4]: 0.09 ± 0.07 % IA/g
- ^177Lu activity in Heart [4]: 0.45 ± 0.27 % IA/g
- ^177Lu activity in Kidneys [4]: 0.75 ± 0.46 % IA/g
- ^177Lu activity in Large Int. [4]: 0.24 ± 0.08 % IA/g
- ^177Lu activity in Liver [4]: 0.49 ± 0.25 % IA/g
- ^177Lu activity in Lungs [4]: 0.46 ± 0.23 % IA/g
- ^177Lu activity in Muscle [4]: 0.11 ± 0.03 % IA/g
- ^177Lu activity in Small Int. [4]: 0.22 ± 0.12 % IA/g
- ^177Lu activity in Spleen [4]: 0.58 ± 0.14 % IA/g
- ^177Lu activity in Stomach [4]: 0.12 ± 0.03 % IA/g
- ^177Lu activity in Tumor [4]: 7.26 ± 0.55 % IA/g
- Tumor-to-tissue ratio, Blood [5]: 13.1 ± 5.1
- Tumor-to-tissue ratio, Bone [5]: 159.0 ± 66.7
- Tumor-to-tissue ratio, Heart [5]: 45.1 ± 18.9
- Tumor-to-tissue ratio, Kidneys [5]: 8.7 ± 3.2
- Tumor-to-tissue ratio, Large Int. [5]: 18.9 ± 10.9
- Tumor-to-tissue ratio, Liver [5]: 14.6 ± 5.3
- Tumor-to-tissue ratio, Lungs [5]: 19.6 ± 7.4
- Tumor-to-tissue ratio, Muscle [5]: 84.5 ± 37.6
- Tumor-to-tissue ratio, Small Int. [5]: 39.8 ± 21.2
- Tumor-to-tissue ratio, Spleen [5]: 9.8 ± 4.4
- Tumor-to-tissue ratio, Stomach [5]: 50.1 ± 20.7
- ^177Lu activity in Blood [5]: 0.52 ± 0.08 % IA/g
- ^177Lu activity in Bone [5]: 0.04 ± 0.01 % IA/g
- ^177Lu activity in Heart [5]: 0.15 ± 0.03 % IA/g
- ^177Lu activity in Kidneys [5]: 0.78 ± 0.09 % IA/g
- ^177Lu activity in Large Int. [5]: 0.36 ± 0.16 % IA/g
- ^177Lu activity in Liver [5]: 0.46 ± 0.04 % IA/g
- ^177Lu activity in Lungs [5]: 0.35 ± 0.05 % IA/g
- ^177Lu activity in Muscle [5]: 0.08 ± 0.02 % IA/g
- ^177Lu activity in Small Int. [5]: 0.17 ± 0.07 % IA/g
- ^177Lu activity in Spleen [5]: 0.69 ± 0.20 % IA/g
- ^177Lu activity in Stomach [5]: 0.14 ± 0.03 % IA/g
- ^177Lu activity in Tumor [5]: 6.76 ± 2.39 % IA/g
- Tumor-to-tissue ratio, Blood [6]: 25.6 ± 13.9
- Tumor-to-tissue ratio, Bone [6]: 63.5 ± 97.0
- Tumor-to-tissue ratio, Heart [6]: 63.5 ± 35.2
- Tumor-to-tissue ratio, Kidneys [6]: 9.4 ± 4.3
- Tumor-to-tissue ratio, Large Int. [6]: 37.7 ± 18.5
- Tumor-to-tissue ratio, Liver [6]: 21.2 ± 9.7
- Tumor-to-tissue ratio, Lungs [6]: 28.5 ± 14.3
- Tumor-to-tissue ratio, Muscle [6]: 84.6 ± 45.2
- Tumor-to-tissue ratio, Small Int. [6]: 99.7 ± 47.9
- Tumor-to-tissue ratio, Spleen [6]: 9.6 ± 4.9
- Tumor-to-tissue ratio, Stomach [6]: 133.0 ± 76.7
- ^177Lu activity in Blood [6]: 0.27 ± 0.08 % IA/g
- ^177Lu activity in Bone [6]: 0.11 ± 0.16 % IA/g
- ^177Lu activity in Heart [6]: 0.11 ± 0.04 % IA/g
